Test results published in patent US20090192227A1, “N-Acetylcysteine Compositions and Methods for Treating Acute Exacerbations of Inflammatory Lung Disease” (priority 2005, published 2009).
“Also recorded” adds a separate entry of the source.

What was measured:
[1] = system: human neutrophil elastase (HNE); assay: Phase 2 trial: sputum HNE enzymatic activity; format: in vivo
Excerpt: (§1) Summary. Based on the success of the phase I trial, the trial proceeded to phase II. This single-center trial consisted of a 12-week placebo-controlled section followed by a 12-week open label section, with oral NAC 0.9 g, taken three times daily. The statistical plan for the study was designed to assess the safety and efficacy of NAC versus placebo, at 0 week and 12-week timepoints (placebo-controlled section). Of the 24 subjects screened for eligibility, 21 were enrolled and randomized into NAC and placebo groups. One subject asked to be withdrawn from the prior to the 6 week time point because the medication regimen was too onerous. […] Two other subjects also were removed from participation in the study by the principal investigator due to poor adherence to the study protocol. […] Thus, 18 subjects are included in this intent-to-treat (ITT) analysis (9 on NAC and 9 on placebo).
(§2) Intention-to-treat analysis of efficacy endpoints. Besides the necessary assessment of the safety of high-dose oral NAC in a placebo-controlled setting, this phase 2 trial also was designed to gain a better understanding of treatment efficacy with regards to improving inflammation, redox imbalance and lung function in CF, albeit within the limits inherent to a small study. […] The primary efficacy endpoint in this phase 2 study is sputum neutrophil count (based on the quantification of live neutrophils by microscopy, reflecting lung inflammation) and the four secondary efficacy endpoints are: (i) FEV1 (% Pred), reflecting lung function; (ii) blood neutrophil GSH, reflecting systemic redox imbalance; (iii) sputum HNE activity, reflecting lung inflammation, the current best predictor of CF lung disease; and (iv) whole blood GSH, reflecting systemic redox imbalance. […]
(§3) These various markers of inflammation were measured independently with different methodologies (e.g., microscopy, kinetic spectrophotometry, enzyme-linked immunosorbent assay), the results of which further strengthen the significance of these positive outcomes. […]

interleukin-17 (IL-17) = assay: Phase 2 trial: plasma levels of interleukin-17 (IL-17); format: in vivo, human; conditions: NAC group compared to placebo group, P=0.02
Excerpt: During week 0 through week12, exacerbations of sinus/lung disease affected 9/18 subjects. Subjects were less prone to exacerbations in the NAC than in the placebo group (2/9 vs. 7/9, respectively, P=0.04, Fisher's exact test). A key molecular correlate of exacerbations, namely plasma levels of the cytokine interleukin-17 (IL-17) also was decreased in the NAC group compared to the placebo-group (P=0.02), further confirming the anti-inflammatory effect of NAC in CF and corroborating its positive effect on acute attacks. IL-17 recently has been identified as a potent T-cell derived modulator of acute neutrophilic lung inflammation [Linden, A., et al. Neutrophils, interleukin-17A and lung disease. Eur. Respir. J. 25:159-172 (2008)]

interleukin-8 = assay: Phase 2 trial: sputum IL-8 protein levels; format: in vivo, human
Excerpt: as §1, §2, §3

elastase = assay: Phase I trial: sputum elastase activity by kinetic spectrophotometry; format: in vivo, human; conditions: 4 weeks
Excerpt: (§4) With regards to efficacy, very significant positive effects of the treatment were documented. These positive effects (Table 2) included amelioration of: 1—Whole blood GSH (+11%, P=0.03), as measured by HPLC and blood neutrophil GSH (+17%, P=0.03), as measured by flow cytometry; 2—Live sputum leukocyte (−21%, P=0.03) and neutrophil (−25%, P=0.02) counts, as measured by microscopy and sputum elastase activity (−44%, P=0.02), as measured by kinetic spectrophotometry; and 3—Perceived weight gain (P=0.01), as measured by the CF QOL
(§5) 2. Lung inflammation, as reflected chiefly by (i) sputum counts in total live leukocytes and neutrophils (along with % neutrophils in sputum); (iii) plasma/sputum levels of elastase and interleukin-8 (IL-8) measured by spectrophotometry and ELISA
(§6) Differences between basal and post-NAC values were studied by matched pair analysis, first, without distinguishing dose cohorts, to detect drug effects, and second, with dose cohorts as a factor, in order to detect potential dose effects.

[2] = systematic review of randomized controlled trials; cited from earlier work
[3] = Phase 2 trial: FEV1 (% Pred), lung function; format: in vivo, human
Excerpt: as §1
Intention-to-treat analysis of efficacy endpoints. Besides the necessary assessment of the safety of high-dose oral NAC in a placebo-controlled setting, this phase 2 trial also was designed to gain a better understanding of treatment efficacy with regards to improving inflammation, redox imbalance and lung function in CF, albeit within the limits inherent to a small study. In particular, the study looked to confirm the positive effects of high-dose oral NAC seen on sputum neutrophil count and HNE activity obtained in phase 1. The primary efficacy endpoint in this phase 2 study is sputum neutrophil count (based on the quantification of live neutrophils by microscopy, reflecting lung inflammation) and the four secondary efficacy endpoints are: (i) FEV1 (% Pred), reflecting lung function; (ii) blood neutrophil GSH, reflecting systemic redox imbalance; (iii) sputum HNE activity, reflecting lung inflammation, the current best predictor of CF lung disease; and (iv) whole blood GSH, reflecting systemic redox imbalance. Data on all other main efficacy endpoints (along with sputum HNE and IL-8 protein levels as additional indicators of inflammation) is presented in Table 3 (below) for all 9 subjects of the NAC group and 9 subjects in the placebo group included in the ITT analysis.

[4] = Phase 2 trial: exacerbations of sinus/lung disease, week 0 through week 12; format: in vivo, human; conditions: NAC group, placebo 7/9, P=0.04
Excerpt: as §1
During week 0 through week12, exacerbations of sinus/lung disease affected 9/18 subjects. Subjects were less prone to exacerbations in the NAC than in the placebo group (2/9 vs. 7/9, respectively, P=0.04, Fisher's exact test). […]

blood neutrophil GSH = assay: Phase 2 trial: blood neutrophil intracellular GSH; format: in vivo, human; conditions: NAC group (n=9), ITT
Excerpt: Summary. Based on the success of the phase I trial, the trial proceeded to phase II. This single-center trial consisted of a 12-week placebo-controlled section followed by a 12-week open label section, with oral NAC 0.9 g, taken three times daily. The statistical plan for the study was designed to assess the safety and efficacy of NAC versus placebo, at 0 week and 12-week timepoints (placebo-controlled section). Of the 24 subjects screened for eligibility, 21 were enrolled and randomized into NAC and placebo groups. One subject asked to be withdrawn from the prior to the 6 week time point because the medication regimen was too onerous. […] Two other subjects also were removed from participation in the study by the principal investigator due to poor adherence to the study protocol. […]
Intention-to-treat analysis of efficacy endpoints. […] The primary efficacy endpoint in this phase 2 study is sputum neutrophil count (based on the quantification of live neutrophils by microscopy, reflecting lung inflammation) and the four secondary efficacy endpoints are: (i) FEV1 (% Pred), reflecting lung function; (ii) blood neutrophil GSH, reflecting systemic redox imbalance; (iii) sputum HNE activity, reflecting lung inflammation, the current best predictor of CF lung disease; and (iv) whole blood GSH, reflecting systemic redox imbalance. […]

interleukin-8 (IL-8) = assay: Phase I trial: sputum interleukin-8 (IL-8) by ELISA; format: in vivo, human; conditions: 3 patients excluded (N = 15), 4 weeks
Excerpt: 2. Lung inflammation, as reflected chiefly by (i) sputum counts in total live leukocytes and neutrophils (along with % neutrophils in sputum); (iii) plasma/sputum levels of elastase and interleukin-8 (IL-8) measured by spectrophotometry and ELISA Differences between basal and post-NAC values were studied by matched pair analysis, first, without distinguishing dose cohorts, to detect drug effects, and second, with dose cohorts as a factor, in order to detect potential dose effects.

[5] = Phase I trial: lung function by spirometry; format: in vivo, human; conditions: short-term treatment (4 weeks)
Excerpt: 3. Lung function, as measured by spirometry. Differences between basal and post-NAC values were studied by matched pair analysis, first, without distinguishing dose cohorts, to detect drug effects, and second, with dose cohorts as a factor, in order to detect potential dose effects. […] Any sizeable change in lung function will likely require longer treatment and larger group size, which we look forward to implementing in the placebo-controlled phase of the study.

[6] = 600 mg three times daily plus prednisone plus azothioprine, one year, vs standard therapy alone; cited from earlier work
[7] = 600 mg oral NAC per day, at least two exacerbations per year for 2 years; cited from earlier work
[8] = Phase 2 placebo-controlled CF trial: safety, adverse events, adherence, CF QOL; format: in vivo, human
Excerpt: Summary. […] This single-center trial consisted of a 12-week placebo-controlled section followed by a 12-week open label section, with oral NAC 0.9 g, taken three times daily. The statistical plan for the study was designed to assess the safety and efficacy of NAC versus placebo, at 0 week and 12-week timepoints (placebo-controlled section).
Serious adverse events and adverse events. […] As used herein, the term “DIOS”, which stands for “Distal Intestinal Obstruction Syndrome” refers to a condition unique to CF that occurs due to the accumulation of viscous mucous and fecal material in the terminal ileum, caecum and ascending colon, which may cause progressive symptoms of recurrent colicky abdominal pain, bloating, nausea and anorexia, and signs of small intestinal obstruction.

[9] = Phase I trial: perceived weight gain by CF QOL questionnaire; format: in vivo, human; conditions: 4 weeks
Excerpt: as §4
Any sizeable change in lung function will likely require longer treatment and larger group size, which we look forward to implementing in the placebo-controlled phase of the study.

[10] = system: human neutrophil elastase (HNE); assay: Phase 2 trial: sputum HNE protein levels; format: in vivo
Excerpt: as §1, §2, §3

[11] = administered intravenously in dogs; cited from earlier work
blood neutrophils = assay: Phase I trial: absolute numbers of neutrophils in blood; format: in vivo, human; conditions: dose cohort 2 (2.4 g/d), 4 weeks
Excerpt: Indeed, cohort 2 was more severely affected with regards to several surrogate markers of disease prior to treatment (lower FEV1, all infected with P. aeruginosa, lower perceived weight gain).

[12] = system: sputum leukocytes and neutrophils; assay: Phase I trial: sputum counts of live leukocytes and neutrophils by microscopy; format: in vivo, human; conditions: 4 weeks
Excerpt: as §4, §5, §6

[13] = more stable than cysteine; cited from earlier work
sputum neutrophils = assay: Phase 2 trial: sputum neutrophil count (live neutrophils by microscopy); format: in vivo, human
Excerpt: as §1
Intention-to-treat analysis of efficacy endpoints. Besides the necessary assessment of the safety of high-dose oral NAC in a placebo-controlled setting, this phase 2 trial also was designed to gain a better understanding of treatment efficacy with regards to improving inflammation, redox imbalance and lung function in CF, albeit within the limits inherent to a small study. In particular, the study looked to confirm the positive effects of high-dose oral NAC seen on sputum neutrophil count and HNE activity obtained in phase 1. The primary efficacy endpoint in this phase 2 study is sputum neutrophil count (based on the quantification of live neutrophils by microscopy, reflecting lung inflammation) and the four secondary efficacy endpoints are: (i) FEV1 (% Pred), reflecting lung function; (ii) blood neutrophil GSH, reflecting systemic redox imbalance; (iii) sputum HNE activity, reflecting lung inflammation, the current best predictor of CF lung disease; and (iv) whole blood GSH, reflecting systemic redox imbalance. […]

[14] = doses less than NAC; effects counter to those reported for NAC; cited from earlier work
[15] = NAC group (n=9), ITT, oral 0.9 g three times daily, week 12
[16] = NAC group (n=9), ITT, week 0 baseline
[17] = phase 2, wk 0 vs wk 12, not in placebo group
[18] = All (N = 18), basal vs post-NAC

CC(=O)N[C@@H](CS)C(=O)O [NAC, N-acetylcysteine]
Sputum HNE enzymatic activity (Log10), Value wk 12 [1, 15]: 3.16 ± 0.20 Log10
Sputum HNE enzymatic activity (Log10), Value wk 0 [1, 16]: 3.61 ± 0.15 Log10
Sputum HNE enzymatic activity, change within NAC group [1, 17]: significant decreases; also recorded: significantly decreased
Plasma levels of IL-17 (interleukin-17 (IL-17)): decreased
Sputum IL-8 protein levels (Log10), Value wk 12 (interleukin-8; [15]): 1.81 ± 0.18 Log10
Sputum IL-8 protein levels (Log10), Value wk 0 (interleukin-8; [16]): 2.01 ± 0.12 Log10
Sputum IL-8 protein levels, change within NAC group (interleukin-8; [17]): significant decreases; also recorded: significantly decreased
Elastase in sputum, change (elastase; 3 patients excluded (N = 15)): −46%
Elastase in sputum, change (elastase; [18]): −44%
Early mortality in ARDS and ALI [2]: no effect
Decline in pulmonary function tests (PFTs) ([3]; ITT analysis over the course of the phase 2 trial): no significant decline
Functional expiratory volume in 1s (% Pred), Value wk 12 [3, 15]: 75.6 ± 8.2 % Pred
Functional expiratory volume in 1s (% Pred), Value wk 0 [3, 16]: 73.7 ± 7.6 % Pred
FEV1 (% Pred), effect ([3]; phase 2, 12 weeks): No significant effect; also recorded: failed to detect any significant improvement
Subjects with exacerbations of sinus/lung disease [4]: 2/9
Blood neutrophil intracellular GSH, Value wk 12 (blood neutrophil GSH; oral 0.9 g three times daily, week 12): 4.10 ± 0.10
Blood neutrophil intracellular GSH, Value wk 0 (blood neutrophil GSH; week 0 baseline): 4.04 ± 0.08
IL-8 in sputum, change (interleukin-8 (IL-8)): −25%
Pulmonary Function Testing results (spirometry) [5]: not changed; also recorded: none of the parameters measured by spirometry showed any change
Deterioration of vital capacity and DLCO in IPF [6]: slows the deterioration
Prevention of deterioration in lung function and exacerbations in COPD [7]: ineffective
Complete blood count and chemistry parameters ([8]; 12-week treatment, marginal changes in red blood cell distribution width and calcium, within normal range): not affected
Flatulence (CF QOL questionnaires) ([8]; NAC group, not in the placebo group, 12 weeks): significant reduction
Liver enzymes ([8]; phase 2, 12 weeks): No change
Tolerability ([8]; phase 2, oral 0.9 g three times daily, 12 weeks): very well tolerated; also recorded: lack of toxicity
Perceived weight gain, change ([9]; 3 patients excluded (N = 15)): Increased
Perceived weight gain, change ([9]; All (N = 18), CF QOL): Increased
Sputum HNE protein levels (Log10), Value wk 12 [10, 15]: −0.27 ± 0.12 Log10
Sputum HNE protein levels (Log10), Value wk 0 [10, 16]: 0.04 ± 0.13 Log10
Sputum HNE protein levels, change within NAC group [10, 17]: significant decreases; also recorded: significantly decreased
Pulmonary oxygen toxicity and ischemic and reperfusion damage [11]: protect
Decrease in absolute numbers of neutrophils in blood (blood neutrophils): 27%
Live sputum leukocytes, change ([12]; 3 patients excluded (N = 15)): −28%
Live sputum neutrophils, change ([12]; 3 patients excluded (N = 15)): −32%
Neutrophils sputum (%), change ([12]; 3 patients excluded (N = 15)): −9%
Live sputum leukocytes, change [12, 18]: −21%
Live sputum neutrophils, change [12, 18]: −25%
Stability relative to cysteine [13]: about 10 times
Sputum neutrophil count (Log10), Value wk 12 (sputum neutrophils; [15]): 1.24 ± 0.18 Log10
Sputum neutrophil count (Log10), Value wk 0 (sputum neutrophils; [16]): 1.41 ± 0.17 Log10
Sputum neutrophil count, change within NAC group (sputum neutrophils; phase 2, wk 0 vs wk 12, 0.9 g three times daily, not in placebo group): significant decreases; also recorded: significantly decreased

CC(=O)N[C@@H](CSSC[C@H](NC(C)=O)C(=O)O)C(=O)O [oxidized form of NAC, di-N-acetylcysteine]
Bioactive dose relative to NAC [14]: 10-100 fold
